Target: Cyclic GMP-AMP synthase (Homo sapiens, UniProt Q8N884)
Assay: Inhibition of recombinant His6-SUMO tagged human CGAS expressed in Escherichia coli BL21/pLys cells incubated for 20 mins by Kinase Glo chemiluminescence assay

Sequence of Cyclic GMP-AMP synthase (Q8N884 whole entry): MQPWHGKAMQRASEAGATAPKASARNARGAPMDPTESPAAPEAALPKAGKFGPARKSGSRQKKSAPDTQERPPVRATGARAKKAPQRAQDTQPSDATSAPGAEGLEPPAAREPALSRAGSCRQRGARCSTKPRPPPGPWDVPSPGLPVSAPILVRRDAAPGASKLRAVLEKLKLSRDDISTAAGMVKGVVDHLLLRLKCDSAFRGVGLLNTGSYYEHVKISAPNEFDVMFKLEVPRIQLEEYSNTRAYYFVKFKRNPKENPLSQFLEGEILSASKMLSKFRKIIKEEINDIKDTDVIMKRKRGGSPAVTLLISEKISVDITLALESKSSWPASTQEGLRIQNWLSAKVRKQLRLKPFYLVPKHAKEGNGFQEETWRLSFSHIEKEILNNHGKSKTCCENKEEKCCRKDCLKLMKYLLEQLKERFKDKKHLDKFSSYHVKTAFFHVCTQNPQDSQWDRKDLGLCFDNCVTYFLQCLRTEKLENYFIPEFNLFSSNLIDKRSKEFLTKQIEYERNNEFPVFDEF

Row | Structure (SMILES) | IC50
1 | CN1C(=O)S/C(=C\c2cc3c(-c4ccc(N)cc4)c[nH]c3cc2Br)C1=O | 0.5 to 10 µM
2 | CC(=O)Nc1nc(S(=O)(=O)Nc2cc(Br)c(/C=C3\SC(=O)N(C)C3=O)cc2OCc2ccccc2)cs1 | 0.5 to 10 µM
3 | CN1C(=O)S/C(=C\c2cc(OCc3cnc(-c4ccccn4)nc3)c(O)cc2Br)C1=O | 0.5 to 10 µM
4 | CN1C(=O)S/C(=C\c2cc(OCc3ccc4cccnc4c3)c(O)cc2Br)C1=O | ≥ 10 µM
5 | CN1C(=O)S/C(=C\c2cc(OCC(F)(F)c3cnc(N)nc3)c(O)c(F)c2Br)C1=O | 0.5 to 10 µM
6 | CN1C(=O)S/C(=C\c2cc(OCc3cncc(NCc4ccccn4)c3)c(O)cc2Br)C1=O | ≥ 10 µM
7 | CN1C(=O)S/C(=C\c2cc(OCc3cncc4ccccc34)c(O)cc2Br)C1=O | ≥ 10 µM
8 | CN1CCC(c2ncc(COc3cc(/C=C4\SC(=O)N(C)C4=O)c(Br)cc3O)cn2)CC1 | ≥ 10 µM
9 | COc1nc(N)ncc1COc1cc(/C=C2\SC(=O)N(C)C2=O)c(Br)cc1O | ≥ 10 µM
10 | CN1C(=O)S/C(=C\c2cc(OCc3cnc([S+](C)[O-])nc3Cl)c(O)cc2Br)C1=O (stereo not given) | ≥ 10 µM
11 | CN1C(=O)S/C(=C\c2cc(Oc3cccc4c3COCC4)c(O)cc2Br)C1=O | ≥ 10 µM
12 | COc1cc(/C=c2\sc3n(c2=O)CCCN=3)c(Br)cc1O | ≥ 10 µM
13 | CC(=O)c1cc(N)ccc1Oc1cc(/C=C2\SC(=O)N(C)C2=O)c(Br)c(F)c1O | ≥ 10 µM
14 | COc1cc(/C=C2\Sc3nccnc3C2=O)c(Br)cc1O | ≥ 10 µM
15 | CSc1ccc(CCc2cc(/C=C3\SC(=O)N(C)C3=O)c(Br)cc2O)cc1 | 0.5 to 10 µM
16 | CC(Oc1cc(CC2Sc3ncccc3C2=O)c(Br)c(F)c1O)c1cnc(Cl)nc1 (stereo not given) | ≥ 10 µM

Further lines, results first:

Row | IC50 | Structure (SMILES)
17 | ≥ 10 µM | COc1cc(/C=C2\SC(=O)N(C)C2=O)c(Br)cc1NS(C)(=O)=O
18 | ≥ 10 µM | O=C1/C(=C/c2cc3oc(=O)[nH]c3cc2Br)Sc2ncccc21
19 | ≥ 10 µM | CN1C(=O)S/C(=C\c2cc(Oc3cccc4ncccc34)c(O)cc2Br)C1=O
20 | ≥ 10 µM | CN1C(=O)S/C(=C\c2cc(OCC3CCN(C(=O)c4ccccn4)CC3)c(O)cc2Br)C1=O
21 | ≥ 10 µM | CN1C(=O)S/C(=C\c2cc(OCC3CCN(C(=O)c4ccncc4)CC3)c(O)cc2Br)C1=O
22 | ≥ 10 µM | CN1C(=O)S/C(=C\c2cc(OCc3cncc(NCc4ccncc4)c3)c(O)cc2Br)C1=O
23 | ≥ 10 µM | CN1C(=O)S/C(=C\c2cc(OCc3ccn(-c4ccccc4)c(=O)c3)c(O)cc2Br)C1=O
24 | ≥ 10 µM | COc1nc(S(C)(=O)=O)ncc1COc1cc(/C=C2\SC(=O)N(C)C2=O)c(Br)cc1O
25 | ≥ 10 µM | COc1cc(/C=C2\SC(=O)N(C)C2=O)c(Br)cc1Oc1cnc(NCc2cccnc2)s1
26 | ≥ 10 µM | Cc1ncc(C(C)Oc2cc(/C=C3\SC(=O)N(C)C3=O)c(Br)cc2O)cn1 (stereo not given)
27 | ≥ 10 µM | COc1cc(/C=c2\sc3n(c2=O)CCN=3)c(Cl)cc1O
28 | ≥ 10 µM | COc1nc(SC)ncc1COc1cc(/C=C2\SC(=O)N(C)C2=O)c(Br)cc1O
29 | ≥ 10 µM | COc1cc(/C=C2\Sc3ncccc3C2=O)c(Br)cc1Oc1cnc(N)s1
30 | ≥ 10 µM | COc1cc(/C=C2\Sc3ncccc3C2=O)c(Br)c(Br)c1O
31 | ≥ 10 µM | CC(=O)c1cc(/C=C2\SC(=O)N(C)C2=O)c(Br)cc1Oc1cnc(N)s1
32 | ≥ 10 µM | COc1cc(/C=C2\SC(=O)N(C)C2=O)c(Br)cc1NS(=O)(=O)c1ccccc1
33 | ≥ 10 µM | CN1C(=O)S/C(=C\c2cc(OCc3ccc(NC(=O)c4ccccn4)nc3)c(O)cc2Br)C1=O
34 | ≥ 10 µM | Cc1nc([S+](C)[O-])nc(C)c1COc1cc(/C=C2\SC(=O)N(C)C2=O)c(Br)cc1O (stereo not given)
35 | ≤ 0.5 µM | CCc1cc(/C=C2\Sc3ncccc3C2=O)c(Br)cc1O
36 | ≤ 0.5 µM | [2H]C(C)(Oc1cc(/C=C2\SC(=O)N(C)C2=O)c(Br)c(F)c1O)c1cnc(N)nc1 (stereo not given)
37 | 0.5 to 10 µM | COc1cc(/C=C2\Sc3ncccc3C2=O)c(C)cc1O
38 | ≤ 0.5 µM | CN1C(=O)S/C(=C\c2cc(OCc3cnc(NC(=O)c4ccncc4)nc3)c(O)c(F)c2Br)C1=O
39 | ≤ 0.5 µM | Cc1cnccc1/C=C1\SC(=O)NC1=O
40 | ≤ 0.5 µM | CN1C(=O)S/C(=C\c2cc(OCc3cnc(-c4ccncc4)nc3)c(O)cc2Br)C1=O
